“And” between values parts separate entries of the source, which are not always exact repeats. Identical values can stand only once.
Key:
[1] = test system: homocysteine, cystathionine, and cysteine; experiment: Long-term administration of PEGylated htCBS C15S conjugates in HO mice: plasma metabolites; type: in vivo; settings: 7.5 mg/kg/day SC, 5 daily injections per bout
Procedure: In one set of experiments, htCBS C15S PEGylated with either ME-200MA0B, ME-200GS, GL4-400MA, or ME-400MA was evaluated. Six groups of HO mice were used to conduct these studies: two groups received 200MA0B PEG-htCBS C15S (Groups 1 and 3), one group received 20NHS PEG-htCBS C15S (Group 4), one group received GL4-400MA PEG-htCBS C15S (Group 5), and two groups received 400MA PEG-htCBS C15S (Group 6 and 7). Both male and female HO mice were used (total n=6 to 8 mice per group) in these studies.
For Group 1, the mice received 2 bouts of 5 daily subcutaneous injections of 200MA0B PEG-htCBS C15S on days 1, 2, 3, 4, and 5 (week 1) and days 15, 16, 17, 18, and 19 (week 3). The dose for this experiment was 5 mg/kg/day. A saline control group (Group 2) was included in this experiment. All other groups received 3 bouts of 5 daily subcutaneous injections on days 1, 2, 3, 4, and 5 (week 1); days 15, 16, 17, 18, and 19 (week 3); and days 29, 30, 31, 32 and 33 (week 5). The dose for these experiments was 7.5 mg/kg/day.
In a separate set of experiments, htCBS C15S PEGylated with ME-200MA0B or ME050GS was evaluated. Two groups of male and female HO mice (1M/5F) received 3 bouts of 5 daily subcutaneous injections of either 200MA0B PEG-htCBS C15S (Group 8) or 050GS PEG-htCBS (Group 9) on days 1, 2, 3, 4, and 5 (week 1); days 15, 16, 17, 18, and 19 (week 3); and days 29, 30, 31, 32 and 33 (week 5). The dose was 7.5 mg/kg/day.
In all sets of experiments, each 5-day dosing cycle was followed by a 10-day “washout period”. Blood was sampled using a submandibular lancet on Monday, Wednesday, and Friday of the dosing weeks (1, 3, and 5) and on the first day (Monday) of each 10-day washout period. All blood sampling procedures and subcutaneous injections were conducted at 3 P.M. to avoid artifacts due to diurnal variations. On days where both blood sampling and injection were conducted the blood sampling procedure was conducted prior to enzyme administration.
The pharmacodynamic response in HO mice to each PEGylated htCBS C15S conjugate was assessed for each bout of dosing by quantitating plasma levels of metabolites homocysteine, cystathionine, and cysteine, which are associated with the transsulfuration pathway, at baseline and after treatment. Quantification was performed by stable-isotope-dilution liquid chromatography mass spectrometry (LC/MS) as described in Example 1. The maximal percent change of homocysteine, cystathionine, and cysteine was calculated compared to baseline values for each dose week.

Hcy, Cth, Cys = experiment: Plasma metabolites in surviving treated KO mice (trough and peak); type: in vivo; settings: 7.5 mg/kg 3x weekly
Procedure: Plasma metabolites homocysteine, cystathionine and cysteine were determined by stable-isotope-dilution liquid chromatography mass spectrometry as previously described in (Allen et al., 1993, Metabolism, 42: 1448-1460). Measurements of total non-protein bound homocysteine and other aminothiols as well as of amino acids in tissue were performed as described in (Maclean et al., 2010b. Mol. Genet. Metab. 101, 153-162). Metabolites were determined by stable-isotope-dilution liquid chromatography mass spectrometry.
Metabolite levels in surviving KO mice at age of about 4-5 weeks were measured after a weekend washout (trough) and 24 hours after the last injection (peak) using the experimental procedure in Example 1.

KO mice = experiment: DEXA bone mineralization and body composition in KO mice; type: in vivo, mouse; settings: 7.5 mg/kg SC 3x/week from day 2 to about 5 months
Procedure: A PIXImusII DEXA scanner (GE Lunar Medical Systems) specifically designed for scanning small animals such as mice was used for DEXA analysis. This machine enabled quick and efficient determination of the body composition (lean, fat mass, and bone density) of a mouse before terminal tissue extraction procedures. Mice were fasted for 4 hours prior to the DEXA measurement to remove food from the gastro-intestinal tract. Mice were then anesthetized using IP bolus injection of 60 mg/kg ketamine and 15 mg/kg xylazine and placed on a tray in the DEXA machine. After the measurement was done (3˜5 minutes), the mice were removed from the DEXA machine and used in terminal procedures, such as tissue extractions.
The bone mineral density (BMD) and bone mineral content (BMC) were analyzed by DEXA for three groups of mice: +/− healthy heterozygous controls (n=4M+6F), affected KO controls (n=5M+13F), and 20NHS PEG-htCBS C15S (C15S/ME-200GS)-treated KO mice (n=6M+15F). The 20NHS PEG-htCBS C15S-treated mice were administered 7.5 mg/kg subcutaneously (SC) three times a week from day 2 to about 5 months. All −/− KO mice were treated for the initial 5 W (from 2 to 35 days of age) to prevent neonatal lethality.

Hcy, Cth, Cys, and Met = experiment: Plasma metabolites in I278T mice of the DEXA study; type: in vivo; settings: continuous long-term administration
Procedure: Plasma metabolites were determined in the same mice/groups as described above and compared to each other. The left bar represents the level of metabolite for +/− healthy controls, and the middle bar represents the level of metabolite for −/− affected controls. The levels of each metabolite in 20NHS PEG-htCBS C15S-treated mice is represented by the right bar.

[2] = Pharmacokinetics of 20NHS PEG-htCBS C15S in monkeys
Procedure: The pharmacokinetic (PK) parameters were calculated using a non-compartmental curve stripping model which resolves a curve into a series of exponential terms corresponding to the absorption, distribution and elimination phases occurring during the time course of the enzyme in the blood. The curve stripping approach assumes that the disposition phases of the drug follow apparent first-order kinetics, which is evidenced by the linearity in the terminal portion of a semi-log plot. These calculations were made using a modeling program called PK Solutions 2.0 (Summit Solutions, Montrose, CO) using the mean plasma enzyme activity for each route of administration. The bioavailability was calculated by dividing the area under the curve (AUC) for the SC or IP route by the AUC observed after IV administration.
For the single dose PK study, three experimental groups of 4 (n=2M+2F) monkeys each were used to conduct the experiments. The first group received 2 mg/kg 20NHS PEG-htCBS C15S via IV injection. Blood was collected at 0, 0.083, 0.16, 0.25, 0.5, 1, 2, 4, 8, 24, 72, 120, and 192 hours post IV injection. The second and third groups received either 2 mg/kg or 6 mg/kg 20NHS PEG-htCBS C15S via SC injection. Blood was collected at 0, 1, 2, 4, 8, 24, 48, 72, 96, 120, 192, 240, and 336 hours post SC injection.

20NHS PEG-htCBS C15S: htCBS C15S PEGylated with ME-200GS PEG (20 kDa linear NHS ester-activated PEG)
cystathionine, Percent Increase at Peak, Week 1 [1]: 676%
cystathionine, Percent Increase at Peak, Week 3 [1]: 492%
cystathionine, Percent Increase at Peak, Week 5 [1]: 432%
cysteine, Percent increase at Peak, Week 1 [1]: 59%
cysteine, Percent increase at Peak, Week 3 [1]: 61%
cysteine, Percent increase at Peak, Week 5 [1]: 51%
total Hcy, Percent Decrease at Trough, Week 1 [1]: 77%
total Hcy, Percent Decrease at Trough, Week 3 [1]: 70%
total Hcy, Percent Decrease at Trough, Week 5 [1]: 66%
total Hcy, Percent Decrease at Trough, Week 1 ([1]; listed as ME-200GS): 77%
total Hcy, Percent Decrease at Trough, Week 3 ([1]; listed as ME-200GS): 70%
total Hcy, Percent Decrease at Trough, Week 5 ([1]; listed as ME-200GS): 66%
plasma Cys (Hcy, Cth, Cys; 24 hours post-dose): 176 ± 6 µM
plasma Hcy (Hcy, Cth, Cys; 24 hours post-dose): 96 ± 8 µM
plasma Cys (Hcy, Cth, Cys; 72 hours post-dose): 106 ± 6 µM
plasma Hcy (Hcy, Cth, Cys; 72 hours post-dose): 179 ± 10 µM
BMD vs control groups (KO mice): significantly higher BMD than both control groups
osteoporosis and body composition (DEXA) (KO mice): completely prevented profound osteoporosis and improved body composition
Hcy, Cth, Cys and Met plasma levels vs untreated −/− mice (Hcy, Cth, Cys, and Met): significantly improved
AUC(0-t) (obs area) ([2]; 2 mg/kg IV): 5942 ± 156 mU-h/μl
Bioavailability ([2]; 2 mg/kg IV): 100%
CL (obs area) ([2]; 2 mg/kg IV): 22.4 ± 1.27 mL/day/kg
MRT (area) ([2]; 2 mg/kg IV): 89.9 ± 2.4 h
cp0 ([2]; 2 mg/kg IV): 96.5 ± 2.8 mU/μl
AUC(0-t) (obs area) ([2]; 2 mg/kg SC): 5263 ± 299 mU-h/μl
Bioavailability ([2]; 2 mg/kg SC): 80.8 ± 4.7%
MRT (area) ([2]; 2 mg/kg SC): 116.3 ± 2.4 h
cmax ([2]; 2 mg/kg SC): 40.8 mU/μl and 40.8 ± 2.0 mU/μl
tmax (obs) ([2]; 2 mg/kg SC): 26.2 ± 2.6 h
AUC(0-t) (obs area) ([2]; 6 mg/kg SC): 15743 ± 629 mU-h/μl
Bioavailability ([2]; 6 mg/kg SC): 79.9 ± 3.5%
MRT (area) ([2]; 6 mg/kg SC): 116.2 ± 5.0 h
cmax ([2]; 6 mg/kg SC): 114.9 mU/μl and 114.9 ± 7.5 mU/μl
tmax (obs) ([2]; 6 mg/kg SC): 32.4 ± 2.4 h
CBS activity after repeated administrations ([2]; 6 SC doses every 72 hours): no attenuation of CBS activity
tmax ([2]; Monkey/both sexes, SC): 29 h
bioavailability (F %) after SC administration ([2]; monkeys, both sexes, across SC doses, listed as OT-58): 81%

— patent publication US12194082B2, “Compositions and methods for treatment of homocystinuria” (THE REGENTS OF THE UNIVERSITY OF COLORADO, priority 2016, dated 2025)
